The results in this text go back to patent publication US20230364069A1, “METHOD FOR TREATING NON-ALCOHOLIC STEATOHEPATITIS THROUGH CO-ADMINISTRATION OF CURCUMIN DERIVATIVE AND TGF-B RECEPTOR INHIBITOR” (UNIVERSITY INDUSTRY FOUNDATION, YONSEI UNIVERSITY WONJU …, priority 2021, published 2023).

Assay [1] relates to mouse hepatocyte cell lines (AML12). The experiment in a line: Fat accumulation induced by oleic acid (BODIPY staining, Western blotting). The assay is classed as cell-based. The following applies: 500 μM oleic acid, 24 hours; for fat increased by oleic acid (BODIPY staining, adipophilin and SREBP1C Western blotting): 1 μM Cur5-8, 10 μM EW-7197, FIGS. 6 and 7. As to the method: Fat accumulation was induced in hepatocytes with oleic acid, curcumin derivatives were administered, and fat synthesis and degradation were confirmed.
Specifically, oleic acid was dissolved in 0.2% bovine serum albumin (BSA) at a concentration of 500 μM, and the cells of Example 1-1 were cultured for 24 hours and treated with the resultant, and also treated with 1 μM curcumin (Cur), 1 μM curcumin 5-8 (Cur5-8), 1 μM curcumin 4-8 (Cur4-8), and 1 μM curcumin 5-14 (Cur5-14) for the same period of time. Thereafter, BODIPY-fatty acid solution (Sigma, 1 mg/mL of stock DMSO solution was diluted with PBS 1× to obtain a final concentration of 0.2 μg/mL) was administered to cells cultured in an incubator of 5% CO2 at 37° C. and cultured for one hour. After washing with PBS 1×, stained cells were observed.
In addition, the cells of Example 1-1 were treated with oleic acid in the same manner as described above and treated with 1 μM curcumin (Cur), 1 μM Curcumin 5-8 (Cur5-8), and 10 μM EW-7197 (EW), and then BODIPY-fatty acid staining was performed in the same manner as above. In addition, the cells were collected after treatment, and the protein expressions of adipophilin as a fat accumulation inducing factor and SREBP1C as a fat metabolism regulator in the collected cells were checked by Western blotting. To this end, Western blotting was performed by using the collected cells in the same method as described in <Example 1-3>. At this time, an anti-β-actin antibody, an anti-adipophilin antibody, and an anti-SREBP1C antibody were used as primary antibodies.
The mouse hepatocyte cell lines were treated with oleic acid by the method described in Example 1-4 and were simultaneously treated with each of curcumin (Cur) and curcumin derivatives (Cur5-8, Cur4-8, and Cur5-14) for 24 hours, and fat was stained by BODIPY staining method. […]

Assay [2] shares this test system. The experiment in a line: TGF-β-induced fibrosis, co-administration of curcumin derivative and EW-7197 (epithelial-mesenchymal conversion, BODIPY, α-SMA staining, Western blotting). The assay is classed as cell-based. The following applies: 2 ng/ml TGF-β, 24 hours, 1 μM Cur or Cur5-8, 10 μM EW-7197; for epithelial-mesenchymal conversion caused by TGF-β: FIG. 8; for liver fibrosis (α-SMA staining, fibrosis marker Western blotting): FIGS. 8, 10, 11. As to the method:
Fibrosis was induced in hepatocytes with TGF-β, a curcumin derivative and a TGF-β receptor inhibitor were co-administered, and then fibrosis and fat synthesis and degradation were checked.
Specifically, 2 ng/ml of TGF-β was administered to the cells of Example 1-1, the cells were divided into administration groups of vehicle (Veh), 1 μM curcumin (Cur), 1 μM curcumin 5-8 (Cur5-8), 0.5 μM EW-7197 (EW0.5), 10 μM EW-7197 (EW or EW10), 1 μM curcumin and 0.5 μM EW-7197 (EW0.5+Cur), 1 μM curcumin and 10 μM EW-7197 (EW+Cur or EW10+Cur), 1 μM curcumin 5-8 and 0.5 μM EW-7197 (EW0.5+Cur5-8), 1 μM curcumin 5-8 and 10 μM EW-7197 (EW+Cur5-8 or EW10+Cur5-8), respective samples were administered, and culturing was performed for 24 hours. The control group (Con) was not treated with either TGF-β or the sample. […] After washing with PBS 1×, stained cells were observed.
In addition, in order to check the degree of fibrosis of hepatocytes, the cells cultured for 24 hours were fixed with 4% paraformaldehyde and then stained by using α-SMA (Santa Cruz Biotechnology, Inc., Dallas, Texas, USA), an Alexafluor 488 (Cell Signaling Technology, Danvers, Massachusetts, USA) antibody, and DAPI (Abcam plc., Cambridge, MA, USA). The cells were mounted with a mounting solution (Fisher Scientific, Hampton, Rockingham, USA), the manufactured sample was photographed using a confocal microscope to obtain photographs of stained cells, and the degree of color development in the photographs of the stained cells was analyzed with the ImageJ program.
In addition, in order to confirm the degree of fibrosis of hepatocytes, the cells cultured for 24 hours were collected, and protein expressions of α-SMA, Collagen I (Coll), p-SMAD2, and p-SMAD3 were checked by Western blotting with fibrosis markers in the same method as described in <Example 1-3>.
In order to check a synergistic effect of inhibiting fibrosis caused by a TGF-β and inhibiting fat accumulation caused thereby in case of co-administration of a curcumin derivative (Cur5-8) and a TGF-β receptor inhibitor (EW-7197), epithelial-mesenchymal conversion of hepatocytes was confirmed through a cell experiment by the method described in Example 1-5, and BODIPY staining and α-SMA staining were performed. Also, protein expressions of α-SMA, Collagen I p-SMAD2, and p-SMAD3 were checked by Western blotting.
(In western blotting, separated proteins are transferred to a membrane and probed.)

`COc1cc(/C=C/C(=O)c2cccc(NC(=O)C(C)C)c2)ccc1O` [Cur5-8, N-{3-[(2E)-3-(4-hydroxy-3-methoxyphenyl)prop-2-enoyl]phenyl}-2-methylpropanamide]: the “fat increased by oleic acid (BODIPY staining)” value in assay [1] (1 μM compound, FIGS. 4 and 5) is “most effectively reduced fat”. In assay [1], the “fat increased by oleic acid (BODIPY staining, adipophilin and SREBP1C Western blotting)” value is reported as “reduced the fat increased by oleic acid”. Besides, in assay [2], the “epithelial-mesenchymal conversion caused by TGF-β” value is recorded as “not inhibited” and the “liver fibrosis (α-SMA staining, fibrosis marker Western blotting)” value is given as “liver fibrosis was induced”.
As for `Cc1cccc(-c2[nH]c(CNc3ccccc3F)nc2-c2ccc3ncnn3c2)n1` [EW-7197, N-(2-fluorophenyl)-5-(6-methyl-2-pyridinyl)-4-[1,2,4]triazolo[1,5-a]pyridin-6-yl-1H-imidazole-2-methanamine], in assay [1], the “fat increased by oleic acid (BODIPY staining, adipophilin and SREBP1C Western blotting)” value is reported as “promotes the fat increase caused by oleic acid”. In assay [2], the “epithelial-mesenchymal conversion caused by TGF-β” value was “inhibited” and the “liver fibrosis (α-SMA staining, fibrosis marker Western blotting)” value is listed as “inhibited”. Also, the “fat accumulation / adipogenesis in cells (BODIPY staining)” value in assay [2] (FIGS. 8, 9) is “fat accumulation in cells was exhibited”.
